Measured values from ChEMBL document CHEMBL1201862, “PubChem BioAssay data set” (2004).
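Method: 48-hour compound exposure of cells in 96-well plates, five concentrations, linear interpolation of endpoints. GI50 is the concentration that inhibits growth by half.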 Active and inactive are the calls of the source. No stated cut-off is given here; in the data, active = GI50 up to about 1.1 µM and inactive = higher.

Legend:
Assay in all cases: DTP human tumour cell line panel, 48 h
NCI-H460 = tested on: NCI-H460
SW-620 = tested on: SW-620
MDA-MB-435 = tested on: MDA-MB-435
SF-539 = tested on: SF-539
U-251 = tested on: U-251
CCRF-CEM = tested on: CCRF-CEM
SN12C = tested on: SN12C
HOP-62 = tested on: HOP-62
BT-549 = tested on: BT-549
EKVX = tested on: EKVX
MDA-MB-231 = tested on: MDA-MB-231
HCC 2998 = tested on: HCC 2998
KM12 = tested on: KM12
ACHN = tested on: ACHN
CAKI-1 = tested on: CAKI-1
MCF7 = tested on: MCF7
DU-145 = tested on: DU-145
T47D = tested on: T47D
UO-31 = tested on: UO-31
A498 = tested on: A498
SR = tested on: SR
SK-OV-3 = tested on: SK-OV-3
PC-3 = tested on: PC-3
M14 = tested on: M14
OVCAR-3 = tested on: OVCAR-3
HT-29 = tested on: HT-29
K562 = tested on: K562
UACC-62 = tested on: UACC-62
OVCAR-8 = tested on: OVCAR-8
OVCAR-5 = tested on: OVCAR-5
MDA-N = tested on: MDA-N
SK-MEL-5 = tested on: SK-MEL-5
NCI-H226 = tested on: NCI-H226
COLO 205 = tested on: COLO 205
Hs-578T = tested on: Hs-578T
IGROV-1 = tested on: IGROV-1
SNB-75 = tested on: SNB-75
SF-295 = tested on: SF-295
OVCAR-4 = tested on: OVCAR-4
SK-MEL-28 = tested on: SK-MEL-28
SNB-19 = tested on: SNB-19
SF-268 = tested on: SF-268
HL-60 = tested on: HL-60
UACC-257 = tested on: UACC-257
Malme-3M = tested on: Malme-3M
786-0 = tested on: 786-0
HOP-92 = tested on: HOP-92
RXF 393 = tested on: RXF 393
HCT-116 = tested on: HCT-116
MOLT-4 = tested on: MOLT-4
NCI-H23 = tested on: NCI-H23
A549 = tested on: A549
NCI-H522 = tested on: NCI-H522
TK-10 = tested on: TK-10
HCT-15 = tested on: HCT-15
NCI/ADR-RES = tested on: NCI/ADR-RES
SK-MEL-2 = tested on: SK-MEL-2
LOX IMVI = tested on: LOX IMVI
RPMI-8226 = tested on: RPMI-8226

Compound: C[C@]12CC[C@H](O)CC1=CC[C@@H]1C2CC[C@]2(C)c3n[nH]nc3CC12 (some centres not stated)
- GI50 (NCI-H460): > 100 µM (inactive)
- GI50 (SW-620): > 100 µM (inactive)
- GI50 (MDA-MB-435): 36.2 µM (inactive)
- GI50 (SF-539): > 100 µM (inactive)
- GI50 (U-251): > 100 µM (inactive)
- GI50 (CCRF-CEM): > 100 µM (inactive)
- GI50 (SN12C): > 100 µM (inactive)
- GI50 (HOP-62): > 100 µM (inactive)
- GI50 (BT-549): > 100 µM (inactive)
- GI50 (EKVX): 52.7 µM (inactive)
- GI50 (MDA-MB-231): > 100 µM (inactive)
- GI50 (HCC 2998): > 100 µM (inactive)
- GI50 (KM12): > 100 µM (inactive)
- GI50 (ACHN): > 100 µM (inactive)
- GI50 (CAKI-1): > 100 µM (inactive)
- GI50 (MCF7): > 100 µM (inactive)
- GI50 (DU-145): > 100 µM (inactive)
- GI50 (T47D): > 100 µM (inactive)
- GI50 (UO-31): > 100 µM (inactive)
- GI50 (A498): > 100 µM (inactive)
- GI50 (SR): 25.9 µM (inactive)
- GI50 (SK-OV-3): > 100 µM (inactive)
- GI50 (PC-3): > 100 µM (inactive)
- GI50 (M14): > 100 µM (inactive)
- GI50 (OVCAR-3): > 100 µM (inactive)
- GI50 (HT-29): > 100 µM (inactive)
- GI50 (K562): 39.8 µM (inactive)
- GI50 (UACC-62): 96.6 µM (inactive)
- GI50 (OVCAR-8): > 100 µM (inactive)
- GI50 (OVCAR-5): > 100 µM (inactive)
- GI50 (MDA-N): 36.3 µM (inactive)
- GI50 (SK-MEL-5): > 100 µM (inactive)
- GI50 (NCI-H226): > 100 µM (inactive)
- GI50 (COLO 205): > 100 µM (inactive)
- GI50 (Hs-578T): 38.6 µM (inactive)
- GI50 (IGROV-1): > 100 µM (inactive)
- GI50 (SNB-75): 82 µM (inactive)
- GI50 (SF-295): > 100 µM (inactive)
- GI50 (OVCAR-4): > 100 µM (inactive)
- GI50 (SK-MEL-28): > 100 µM (inactive)
- GI50 (SNB-19): > 100 µM (inactive)
- GI50 (SF-268): > 100 µM (inactive)
- GI50 (HL-60): 44.4 µM (inactive)
- GI50 (UACC-257): > 100 µM (inactive)
- GI50 (Malme-3M): > 100 µM (inactive)
- GI50 (786-0): > 100 µM (inactive)
- GI50 (HOP-92): > 100 µM (inactive)
- GI50 (RXF 393): > 100 µM (inactive)
- GI50 (HCT-116): > 100 µM (inactive)
- GI50 (MOLT-4): > 100 µM (inactive)
- GI50 (NCI-H23): > 100 µM (inactive)
- GI50 (A549): > 100 µM (inactive)
- GI50 (NCI-H522): > 100 µM (inactive)
- GI50 (TK-10): > 100 µM (inactive)

Compound: Cc1ccc(O)c(-c2cc(-c3ccccc3)nc(/N=C\c3ccccc3)n2)c1
- GI50 (NCI-H460): 17.9 µM (inactive)
- GI50 (SW-620): > 100 µM (inactive)
- GI50 (HCT-15): 11.6 µM
- GI50 (MDA-MB-435): > 100 µM (inactive)
- GI50 (SF-539): 29.6 µM (inactive)
- GI50 (U-251): 20.9 µM (inactive)
- GI50 (CCRF-CEM): 18.6 µM (inactive)
- GI50 (SN12C): 42.9 µM (inactive)
- GI50 (HOP-62): 18.1 µM (inactive)
- GI50 (NCI/ADR-RES): 21.5 µM (inactive)
- GI50 (BT-549): 0.126 µM (active)
- GI50 (EKVX): 47.8 µM (inactive)
- GI50 (MDA-MB-231): 77.3 µM (inactive)
- GI50 (SK-MEL-2): 25.8 µM (inactive)
- GI50 (KM12): 17.5 µM (inactive)
- GI50 (ACHN): 13.1 µM (inactive)
- GI50 (MCF7): 2.6 µM (inactive)
- GI50 (DU-145): > 100 µM (inactive)
- GI50 (T47D): 7.69 µM (inactive)
- GI50 (UO-31): 2.94 µM (inactive)
- GI50 (SR): 59.4 µM (inactive)
- GI50 (PC-3): > 100 µM (inactive)
- GI50 (M14): > 100 µM (inactive)
- GI50 (OVCAR-3): 23.7 µM (inactive)
- GI50 (HT-29): > 100 µM (inactive)
- GI50 (K562): 45.6 µM (inactive)
- GI50 (UACC-62): 8.17 µM (inactive)
- GI50 (OVCAR-8): 20.4 µM (inactive)
- GI50 (OVCAR-5): > 100 µM (inactive)
- GI50 (MDA-N): 94.2 µM (inactive)
- GI50 (SK-MEL-5): 31.5 µM (inactive)
- GI50 (NCI-H226): 30.3 µM (inactive)
- GI50 (LOX IMVI): 21.8 µM (inactive)
- GI50 (Hs-578T): 25.3 µM (inactive)
- GI50 (IGROV-1): 16.6 µM (inactive)
- GI50 (SNB-75): 15.3 µM (inactive)
- GI50 (SF-295): 36.1 µM (inactive)
- GI50 (OVCAR-4): 31.4 µM (inactive)
- GI50 (SK-MEL-28): > 100 µM (inactive)
- GI50 (SNB-19): 29.8 µM (inactive)
- GI50 (SF-268): 21.9 µM (inactive)
- GI50 (HL-60): 35.2 µM (inactive)
- GI50 (UACC-257): > 100 µM (inactive)
- GI50 (Malme-3M): > 100 µM (inactive)
- GI50 (786-0): 32.5 µM (inactive)
- GI50 (HOP-92): 43.7 µM (inactive)
- GI50 (HCT-116): 28.4 µM (inactive)
- GI50 (MOLT-4): 18.2 µM (inactive)
- GI50 (NCI-H23): 24.4 µM (inactive)
- GI50 (A549): 23.1 µM (inactive)
- GI50 (NCI-H522): > 100 µM (inactive)
- GI50 (TK-10): 97.1 µM (inactive)

Compound: COc1ccc(/C=C(\C#N)c2nc3ccccc3c(=O)[nH]2)cc1
- GI50 (NCI-H460): 16.6 µM (inactive)
- GI50 (SW-620): 50.4 µM (inactive)
- GI50 (HCT-15): 54.5 µM
- GI50 (MDA-MB-435): > 100 µM (inactive)
- GI50 (SF-539): 12.6 µM (inactive)
- GI50 (U-251): 9.42 µM (inactive)
- GI50 (CCRF-CEM): > 100 µM (inactive)
- GI50 (SN12C): 33.6 µM (inactive)
- GI50 (HOP-62): 10.5 µM (inactive)
- GI50 (NCI/ADR-RES): 20.3 µM (inactive)
- GI50 (RPMI-8226): > 100 µM (inactive)
- GI50 (BT-549): 15.5 µM (inactive)
- GI50 (EKVX): 59.6 µM (inactive)
- GI50 (MDA-MB-231): 4.84 µM (inactive)
- GI50 (HCC 2998): 49.5 µM (inactive)
- GI50 (SK-MEL-2): 27.3 µM (inactive)
- GI50 (KM12): 51.5 µM (inactive)
- GI50 (ACHN): 17.1 µM (inactive)
- GI50 (CAKI-1): 27.8 µM (inactive)
- GI50 (MCF7): 34.4 µM (inactive)
- GI50 (DU-145): 23.1 µM (inactive)
- GI50 (T47D): 20.6 µM (inactive)
- GI50 (UO-31): 26.5 µM (inactive)
- GI50 (SR): 39.4 µM (inactive)
- GI50 (SK-OV-3): 11.3 µM (inactive)
- GI50 (PC-3): 38.7 µM (inactive)
- GI50 (M14): 30 µM (inactive)
- GI50 (HT-29): > 100 µM (inactive)
- GI50 (K562): > 100 µM (inactive)
- GI50 (UACC-62): 18.4 µM (inactive)
- GI50 (OVCAR-8): 10.6 µM (inactive)
- GI50 (OVCAR-5): > 100 µM (inactive)
- GI50 (MDA-N): > 100 µM (inactive)
- GI50 (SK-MEL-5): 19.5 µM (inactive)
- GI50 (NCI-H226): 27 µM (inactive)
- GI50 (COLO 205): 73.6 µM (inactive)
- GI50 (LOX IMVI): 43.4 µM (inactive)
- GI50 (Hs-578T): 15.1 µM (inactive)
- GI50 (IGROV-1): 30.3 µM (inactive)
- GI50 (SNB-75): 23.9 µM (inactive)
- GI50 (SF-295): 20.5 µM (inactive)
- GI50 (OVCAR-4): 20.3 µM (inactive)
- GI50 (SK-MEL-28): > 100 µM (inactive)
- GI50 (SNB-19): 12.9 µM (inactive)
- GI50 (SF-268): 13.7 µM (inactive)
- GI50 (HL-60): > 100 µM (inactive)
- GI50 (UACC-257): 68.7 µM (inactive)
- GI50 (Malme-3M): > 100 µM (inactive)
- GI50 (786-0): 13.9 µM (inactive)
- GI50 (HOP-92): 12.1 µM (inactive)
- GI50 (RXF 393): 15.5 µM (inactive)
- GI50 (HCT-116): 5.22 µM (inactive)
- GI50 (MOLT-4): > 100 µM (inactive)
- GI50 (A549): 45.9 µM (inactive)
- GI50 (NCI-H522): 10.6 µM (inactive)
- GI50 (TK-10): 23.3 µM (inactive)
